From patent US20140162966A1, “NANOPARTICLES FOR DELIVERY OF LIGANDS” (The U.S.A, as represented by the Secretary, Department of …, priority 2012, published 2014)

Experiments:
4T1-fluc cells = assay: cellular uptake of Cy3-labeled siRNA; format: cell-based
Procedure: CD44 expression was confirmed by flow cytometry. The red fluoresecence from Cy3-labeled siRNA was more intense in 4T1-fluc cells that were treated with siRNA/HADPA-Zn-NPs than in the cells that were treated with Lipofectamine 2000 (Lipo2K)/siRNA. […] Furthermore, the uptake of siRNA/HADPA-Zn-NPs into 4T1-fluc cells was 3.7±0.5-fold higher than the uptake into 293T cells.

[1] = tested on: subcutaneous 4T1-fluc tumors; assay: in vivo gene silencing in 4T1-fluc xenograft mouse model (in vivo BLI); set-up: species or system Balb/C mice; conditions: 72 hours after intratumor injection; siLuc 100 pmol and/or NPs 200 ug in 80 uL
Procedure: Four groups of Balb/C mice (n=5 per group) with subcutaneous 4T1-fluc tumors were treated with an intratumor injection of 80 uL of a buffer solution that contained siLuc/HADPA-Zn-NPs (100 pmol/200 ug), HADPA-Zn-NPs (200 ug), naked siLuc (100 pmol), or phosphate-buffered saline (PBS). The silencing of the fluc gene was measured by in vivo BLI. […] In contrast the control groups had increased levels of fluc expression ((30.0±4.1) %, (38.2±3.9)%, and (39.2±5.3)%, for HADPA-Zn-NPs, naked siRNA, and PBS, respectively, FIG. 8). The tumors from each group were harvested and weighed after BLI to determine whether the apparent gene silencing effect was a result of a reduction in the volume of the tumors as a consequence of the toxicity of the formulation. As shown by the […] testing, there was no significant difference in the neoplastic weights of the tumors between the various groups.

| Substance | fluorescence observed in treated cells (4T1-fluc cells) | relative level of fluc expression [1] |
| --- | --- | --- |
| Zn-dipicolylamine [Zn-DPA] | no fluorescence was observed |  |
| naked siRNA: siRNA that targets the firefly luciferase gene, SEQUENCE ID NO. 1 and 2, without carrier (chain 1 GCACUCUGAUUGACAAAUACGAUUU; chain 2 AAAUCGUAUUUGUCAAUCAGAGUGC; listed as RNA, chemistry not given here) |  | 38.2±3.9% |
